One assay deals with RSK2 (Homo sapiens (Human), UniProt P51812). The assay can be described thus: Radioisotope kinase assay (SignalChem), RSK2. The following applies: 33P-ATP, 30° C., 15 minutes. Format: biochemical. How it is done: The assay conditions for the RSK2 kinase target were optimized to yield acceptable enzymatic activity. In addition, the assays were optimized to give high signal-to-noise ratio.
Radioisotope assays (SignalChem) were performed for the evaluation of the kinase target profiling and all assays were performed in a designated radioactive working area. The kinase targets were RSK1, RSK2, RSK3, RSK4 and MK2.
The assay was initiated by the addition of ^33P-ATP and the reaction mixture incubated at 30° C. for 15 minutes. After the incubation period, the assay was terminated by spotting 10 μL of the reaction mixture onto Multiscreen phosphocellulose P81 plate. The Multiscreen phosphocellulose P81 plate was washed 3 times for approximately 15 minutes each in a 1% phosphoric acid solution. The radioactivity on the P81 plate was counted in the presence of scintillation fluid in a Trilux scintillation counter.
Blank controls were set up for each target kinase which included all the assay components except the addition of the appropriate substrate (which was replaced with equal volume of assay dilution buffer). The corrected activity for each target kinase was determined by removing the blank control value.

Another assay has as its system HCC1143 cells. Kind of assay: Monolayer growth inhibition, crystal violet assay. The class given is cell-based. Conditions: Homo sapiens, HCC1143, HCC1143 (TNBC), 5 days, single dose on day 1. The source says: (§1) In all instances a single dose was given on day 1 of the experiment.
A further assay has as its system SUM149 cells. The assay can be described thus: Monolayer growth inhibition, crystal violet assay. The class given is cell-based. The following applies: Homo sapiens, SUM149, SUM149 (TNBC, BRCA Mutant), 5 days, single dose on day 1.
Excerpt: as §1

Usually IC50 stands for the concentration at which inhibition is half-maximal.

Chain of RSK2 (P51812 whole entry): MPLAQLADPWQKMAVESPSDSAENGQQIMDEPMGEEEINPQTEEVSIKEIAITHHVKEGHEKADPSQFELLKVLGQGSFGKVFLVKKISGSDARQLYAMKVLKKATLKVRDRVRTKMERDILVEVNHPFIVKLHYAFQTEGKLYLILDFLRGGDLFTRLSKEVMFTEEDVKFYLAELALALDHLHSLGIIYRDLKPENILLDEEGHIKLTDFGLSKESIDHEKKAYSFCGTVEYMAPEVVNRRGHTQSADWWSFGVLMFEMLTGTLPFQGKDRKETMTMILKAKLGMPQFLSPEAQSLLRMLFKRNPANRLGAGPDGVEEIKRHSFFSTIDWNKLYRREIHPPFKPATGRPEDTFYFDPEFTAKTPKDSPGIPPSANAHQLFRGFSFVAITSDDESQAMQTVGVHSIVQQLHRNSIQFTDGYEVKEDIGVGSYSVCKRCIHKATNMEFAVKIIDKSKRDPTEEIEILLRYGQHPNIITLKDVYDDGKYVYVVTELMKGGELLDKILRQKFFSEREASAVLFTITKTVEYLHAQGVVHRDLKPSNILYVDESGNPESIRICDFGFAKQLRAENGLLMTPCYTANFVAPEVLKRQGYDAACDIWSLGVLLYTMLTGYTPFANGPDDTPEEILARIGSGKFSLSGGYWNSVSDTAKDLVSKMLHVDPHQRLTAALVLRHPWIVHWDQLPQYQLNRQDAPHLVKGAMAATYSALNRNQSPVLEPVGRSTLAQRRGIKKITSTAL

`C[C@@H]1CNC(=O)c2cc3ccc(C(=O)Nc4cnn(Cc5ccc(N)cc5)c4)nc3n21` [Compound 18, (R)—N-(1-(4-aminobenzyl)-1H-pyrazol-4-yl)-9-methyl-6-oxo-6,7,8,9-tetrahydropyrido[3′,2′:4,5]pyrrolo[1,2-a]pyrazine-2-carboxamide]: the IC50 at RSK2 is 20 nM; in the assay with HCC1143 cells it was 2400 ± 800 nM; with SUM149 cells, 2400 ± 700 nM.

The values are drawn from patent US10081632B2, “Substituted tetrahydropyrido[3′,2′:4,5]pyrrolo[1,2-α]pyrazine-2-carboxamides as RSK inhibitors” (Phoenix Molecular Designs, priority 2016, dated 2018).
